Results from patent US8211929B2, “Pyrimidine derivatives as kinase modulators and method of use” (Exelixis, Inc., priority 2004, dated 2012).
Like-named read-outs stand apart in the source and are kept apart here.

What was measured:
[1] = target: T1, (Homo sapiens, UniProt P08069); assay: IGF1R kinase assay (LCCA), IGF 0P; type: biochemical
T1 construct: human IGF1R kinase domain residues M954-C1367; made in house; host or cells: baculovirus expression (insect cells)
Method in brief: (§1)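 Baculovirus-expressed human IGF1R kinase domain (M954-C1367), 4 nM, with 3 μM ATP and 4 μM poly EY in Tris-HCl pH 7.5 buffer containing MgCl2 and MnCl2, 2 h at ambient temperature. Remaining ATP read by luciferase chemiluminescence; IC50 from 10-point dose-response fitted to a four-parameter equation.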

[2] = target: T2, IGF 3P (Homo sapiens, UniProt P08069); assay: IGF1R kinase assay (LCCA), IGF 3P; type: biochemical
T2 construct: human IGF1R kinase domain residues M954-C1367; made in house; host or cells: baculovirus expression (insect cells)
Method in brief: as §1

T1 sequence (P08069 954-1367): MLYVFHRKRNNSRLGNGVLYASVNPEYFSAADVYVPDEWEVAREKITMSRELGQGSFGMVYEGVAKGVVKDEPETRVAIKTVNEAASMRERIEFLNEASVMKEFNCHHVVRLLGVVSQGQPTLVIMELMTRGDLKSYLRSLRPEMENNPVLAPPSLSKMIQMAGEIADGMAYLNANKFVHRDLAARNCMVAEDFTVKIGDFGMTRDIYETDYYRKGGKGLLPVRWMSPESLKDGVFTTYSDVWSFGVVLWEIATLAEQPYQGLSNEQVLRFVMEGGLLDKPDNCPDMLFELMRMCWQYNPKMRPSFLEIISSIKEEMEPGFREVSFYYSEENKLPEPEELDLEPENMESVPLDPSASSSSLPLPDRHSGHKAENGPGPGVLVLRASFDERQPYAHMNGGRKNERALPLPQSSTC
T2 sequence (P08069 954-1367): as above

| SMILES | IC50 [1] [nM] | IC50 [2] [nM] | IC50 ([1]; IGF1R kinase LCCA assay) [nM] | IC50 ([2]; IGF1R kinase LCCA assay) [nM] |
| --- | --- | --- | --- | --- |
| CN1CCN(c2cc(Nc3cc(C4CC4)n[nH]3)nc(NCc3cc(-c4cncnc4)no3)n2)CC1 [Example 642, N^4-(3-cyclopropyl-1H-pyrazol-5-yl)-6-(4-methylpiperazin-1-yl)-N^2-[(3-pyrimidin-5-ylisoxazol-5-yl)methyl]pyrimidine-2,4-diamine] | 50 to 500 | < 50 | – | – |
| Brc1cnc(NCc2nccs2)nc1Nc1cc(C2CC2)[nH]n1 [Example 179] | – | – | 500 to 5000 | 500 to 5000 |
| Cc1cc(C)cc(Nc2nc(C)cc(Nc3cc(C4CC4)n[nH]3)n2)c1 [Example 270] | – | – | 500 to 5000 | > 5000 |
| c1ccc(-c2cc(CNc3nc(Nc4cc(C5CC5)[nH]n4)cc(N4CCNCC4)n3)on2)cc1 [Example 499] | – | – | 50 to 500 | < 50 |
| O=C(NCCN1CCOCC1)c1nc(Nc2ccccc2Cl)nc(Nc2cc(C3CC3)n[nH]2)c1[N+](=O)[O-] [Example 228] | – | – | 500 to 5000 | 500 to 5000 |
| Cc1cc(Nc2cc(C)on2)nc(Nc2ccc(N3CCOCC3)cc2)n1 [Example 295] | – | – | > 5000 | > 5000 |
| Brc1cnc(Nc2cccc(OCc3ccccc3)c2)nc1Nc1cc(C2CC2)n[nH]1 [Example 269] | – | – | > 5000 | > 5000 |
| FC(F)(F)Oc1ccc(Nc2ncc(Br)c(Nc3cc(C4CC4)[nH]n3)n2)c(Br)c1 [Example 237] | – | – | > 5000 | 500 to 5000 |
| CN1CCN(c2cc(Nc3cc(C4CC4)n[nH]3)nc(NCc3cc(-c4ccnc(N)n4)no3)n2)CC1 [Example 660, N^2-{[3-(2-aminopyrimidin-4-yl)isoxazol-5-yl]methyl}-N^4-(3-cyclopropyl-1H-pyrazol-5-yl)-6-(4-methylpiperazin-1-yl)pyrimidine-2,4-diamine] | 50 to 500 | 50 to 500 | – | – |
| CC(C)c1cc(CNc2nc(NCCN3CCN(C)CC3)cc(Nc3cc(C(C)C)[nH]n3)n2)on1 [Example 558] | – | – | 50 to 500 | < 50 |
| CN1CCN(c2cc(Nc3cc(C4CC4)[nH]n3)nc(NCc3cc(-c4cccs4)no3)n2)CC1 [Example 640, N^4-(5-cyclopropyl-1H-pyrazol-3-yl)-6-(4-methylpiperazin-1-yl)-N^2-{[3-(2-thienyl)isoxazol-5-yl]methyl}pyrimidine-2,4-diamine] | 50 to 500 | < 50 | – | – |
| Brc1cnc(Nc2ccccc2I)nc1Nc1cc(C2CC2)n[nH]1 [Example 96] | – | – | 50 to 500 | 50 to 500 |
| CN(Cc1ccccc1Cl)c1ncc(Br)c(Nc2cc(C3CC3)[nH]n2)n1 [Example 204] | – | – | 500 to 5000 | 500 to 5000 |
| Brc1cnc(Nc2ccccc2N2CCOCC2)nc1Nc1cc(C2CC2)n[nH]1 [Example 260] | – | – | > 5000 | > 5000 |
| Brc1cnc(Nc2cc(-c3ccccc3)n[nH]2)nc1Nc1cc(-c2ccccc2)n[nH]1 [Example 319] | – | – | > 5000 | > 5000 |
| Cc1cc(Nc2cc(C3CC3)[nH]n2)nc(NCc2ccc(-c3ccc(Cl)cc3)s2)n1 [Example 562] | – | – | 500 to 5000 | 500 to 5000 |
| N#Cc1cccc(Nc2ncc(Br)c(Nc3cc(C4CC4)n[nH]3)n2)c1 [Example 196] | – | – | 500 to 5000 | 500 to 5000 |
| CN(C)c1cc(Nc2cc(C3CC3)[nH]n2)nc(NCc2cc(-c3ccccc3)no2)n1 [Example 110] | – | – | 50 to 500 | 50 to 500 |
| CC(C)c1cc(CNc2nc(NCCN3CCN(C)CC3)cc(Nc3cc(C4CC4)[nH]n3)n2)on1 [Example 559] | – | – | 500 to 5000 | < 50 |
| c1cc(Nc2cc(C3CCCC3)n[nH]2)nc(Nc2ccc(N3CCOCC3)cc2)n1 [Example 151] | – | – | 500 to 5000 | 50 to 500 |
| Cc1cc(Nc2cc(C3CC3)[nH]n2)nc(NCc2cc(-c3ccccc3Br)no2)n1 [Example 525] | – | – | 50 to 500 | 50 to 500 |
| c1ccc(-c2cc(CNc3nc4c(c(Nc5cc(C6CC6)[nH]n5)n3)CCNC4)on2)cc1 [Example 283] | – | – | > 5000 | > 5000 |
| Brc1cnc(NCC2CCNCC2)nc1Nc1cc(C2CC2)n[nH]1 [Example 198] | – | – | > 5000 | 500 to 5000 |
| CCN1CCN(c2cc(Nc3cc(C4CC4)n[nH]3)nc(NCc3cc(C(C)C)no3)n2)CC1 [Example 661, N^4-(3-cyclopropyl-1H-pyrazol-5-yl)-6-(4-ethylpiperazin-1-yl)-N^2-{[3-(1-methylethyl)isoxazol-5-yl]methyl}pyrimidine-2,4-diamine] | 50 to 500 | < 50 | – | – |
| Cc1cc(Nc2cc(C3CC3)[nH]n2)nc(NCc2cc(-c3cccc(Br)c3)no2)n1 [Example 542] | – | – | 50 to 500 | 50 to 500 |
| Nc1cnc(Nc2ccccc2Cl)nc1Nc1cc(C2CC2)n[nH]1 [Example 220] | – | – | 50 to 500 | 500 to 5000 |
| CC(C)c1cc(Nc2cc(N3CCN[C@@H](C)C3)nc(NCc3cc(-c4ccccc4)no3)n2)n[nH]1 [Example 591, N^4-[5-(1-methylethyl)-1H-pyrazol-3-yl]-6-[(3S)-3-methylpiperazin-1-yl]-N^2-[(3-phenylisoxazol-5-yl)methyl]pyrimidine-2,4-diamine] | 50 to 500 | < 50 | – | – |

| SMILES | IC50 [1] [nM] | IC50 [2] [nM] | IC50 ([1]; IGF1R kinase LCCA assay) [nM] | IC50 ([2]; IGF1R kinase LCCA assay) [nM] |
| --- | --- | --- | --- | --- |
| CN1CCN(c2cc(Nc3cc(C4CC4)[nH]n3)nc(NCc3cc(-c4ccoc4)no3)n2)CC1 [Example 629, N^4-(5-cyclopropyl-1H-pyrazol-3-yl)-N^2-[(3-furan-3-ylisoxazol-5-yl)methyl]-6-(4-methylpiperazin-1-yl)pyrimidine-2,4-diamine] | 50 to 500 | < 50 | – | – |
| Cc1cc(CNc2nc(Nc3cc(C4CC4)[nH]n3)cc(N3C[C@H]4C[C@@H]3CN4Cc3ccccc3)n2)on1 [Example 635, N^4-(5-cyclopropyl-1H-pyrazol-3-yl)-N^2-[(3-methylisoxazol-5-yl)methyl]-6-[(1R,4R)-5-(phenylmethyl)-2,5-diazabicyclo[2.2.1]hept-2-yl]pyrimidine-2,4-diamine] | 50 to 500 | < 50 | – | – |
| Nc1ncc(Br)c(Nc2cc(C3CC3)[nH]n2)n1 [Example 314] | – | – | > 5000 | > 5000 |
| Cc1cc(Nc2cc(C3CC3)[nH]n2)nc(NCc2cnc[nH]2)n1 [Example 536] | – | – | 500 to 5000 | 500 to 5000 |
| FC(F)(F)Oc1cccc(Nc2ncc(Br)c(Nc3cc(C4CC4)n[nH]3)n2)c1 [Example 264] | – | – | > 5000 | > 5000 |
| Cc1cc(CNc2nc(Nc3cc(C4CC4)[nH]n3)cc(N3CC4CC3CN4C)n2)on1 (stereo not shown) [Example 631, N^4-(5-cyclopropyl-1H-pyrazol-3-yl)-6-(5-methyl-2,5-diazabicyclo[2.2.1]hept-2-yl)-N^2-[(3-methylisoxazol-5-yl)methyl]pyrimidine-2,4-diamine] | 50 to 500 | < 50 | – | – |
| CN1CCC(NC(=O)c2ccc(Nc3nccc(Nc4cc(C5CC5)n[nH]4)n3)cc2)CC1 [Example 164] | – | – | 500 to 5000 | 500 to 5000 |
| CCN(CC)CCCNc1cc(Nc2cc(C3CC3)n[nH]2)nc(Nc2ccccc2Cl)n1 [Example 182] | – | – | 500 to 5000 | 500 to 5000 |
| CCN(CC)CCCNc1cc(Nc2cc(C(C)C)[nH]n2)nc(NCc2cc(-c3ccccc3)no2)n1 [Example 495] | – | – | 50 to 500 | < 50 |
| Fc1ccc(Nc2ncc(Br)c(Nc3cc(C4CC4)n[nH]3)n2)c(Br)c1 [Example 121] | – | – | 50 to 500 | 50 to 500 |
| Brc1cnc(NCCc2cccs2)nc1Nc1cc(C2CC2)n[nH]1 [Example 170] | – | – | 500 to 5000 | 500 to 5000 |
| CCN(CC)CCNC(=O)c1cc2ccc(Nc3nc(C)cc(Nc4cc(C5CC5)n[nH]4)n3)cc2s1 [Example 221] | – | – | 500 to 5000 | 500 to 5000 |
| CCc1cc(CNc2nc(Nc3cc(C4CC4)n[nH]3)cc(OCCN(C)C)n2)on1 [Example 657, N^4-(3-cyclopropyl-1H-pyrazol-5-yl)-6-{[2-(dimethylamino)ethyl]oxy}-N^2-[(3-ethylisoxazol-5-yl)methyl]pyrimidine-2,4-diamine] | 50 to 500 | < 50 | – | – |
| CC(C)c1cc(Nc2cc(OCCN3CCOCC3)nc(NCc3cc(-c4ccc(F)cc4)no3)n2)[nH]n1 [Example 609] | 50 to 500 | < 50 | – | – |
| Cc1cc(Nc2cc(OCCN(C)C)nc(NCc3cc(C)no3)n2)[nH]n1 [Example 650, 6-{[2-(dimethylamino)ethyl]oxy}-N^2-[(3-methylisoxazol-5-yl)methyl]-N^4-(3-methyl-1H-pyrazol-5-yl)pyrimidine-2,4-diamine] | 500 to 5000 | 500 to 5000 | – | – |
| Cc1cc(Nc2cc(C(C)C)[nH]n2)nc(NCc2cc(C(C)C)no2)n1 [Example 526] | – | – | 500 to 5000 | < 50 |
| Cc1cc(Nc2cc(C3CC3)n[nH]2)nc(Nc2ccc(C3CCN(C(=O)OC(C)(C)C)CC3)cc2)n1 [Example 566] | – | – | 500 to 5000 | 500 to 5000 |
| CN1CCN(CCNC(=O)c2cc(Nc3cc(C4CC4)[nH]n3)nc(NCc3cc(-c4ccccc4)no3)n2)CC1 [Example 527] | – | – | 50 to 500 | 50 to 500 |
| Clc1cccc(Nc2nc(Nc3ccccc3Cl)ncc2Br)c1 [Example 205] | – | – | 500 to 5000 | 500 to 5000 |
| NC(=O)c1ccc(Oc2ncc(Br)c(Nc3cc(C4CC4)n[nH]3)n2)cc1 [Example 158] | – | – | 500 to 5000 | 500 to 5000 |
| Brc1cnc(NC2CCCc3ccccc32)nc1Nc1cc(C2CC2)[nH]n1 (stereo not shown) [Example 34] | – | – | 50 to 500 | 500 to 5000 |
| Nc1nc(C2CC2)nn1-c1nc(Nc2ccc(N3CCOCC3)cc2)ncc1Br [Example 284] | – | – | > 5000 | > 5000 |
| Cc1cc(Nc2nc(NCc3cc(-c4ccccc4)no3)ncc2Br)no1 [Example 296] | – | – | > 5000 | > 5000 |
| Cc1cc(Nc2cc(C3CC3)[nH]n2)nc(NCc2cc(-c3ccccn3)no2)n1 [Example 498] | – | – | 50 to 500 | 50 to 500 |
| Cc1cc(Nc2cc(C3CC3)n[nH]2)nc(Nc2ccc(CCN)cc2)n1 [Example 550] | – | – | 500 to 5000 | 50 to 500 |
| Brc1cnc(NCc2ccco2)nc1Nc1cc(C2CC2)n[nH]1 [Example 138] | – | – | 50 to 500 | 50 to 500 |
